The term IC50 denotes the midpoint of a concentration-inhibition curve. Higher therefore signals weaker potency.

This passage reports IC50 and Reduction results from ChEMBL document CHEMBL1130021 (J Med Chem, 1997).

Structures can show the parent of a compound that is named as a salt.

One assay deals with MCF7. As to the kind of experiment: Inhibition of estrogen-induced proliferation in human MCF-7 breast cancer cells. Format: functional, cell-based.
`O=C(c1ccc(OCCN2CCCCC2)cc1)c1c(-c2ccc(O)cc2)sc2cc(O)ccc12` [RALOXIFENE HYDROCHLORIDE] registered an IC50 of 0.4 nM.

`Oc1ccc(-c2sc3cc(O)ccc3c2Nc2ccc(OCCN3CCCCC3)cc2)cc1`: the IC50 amounted to 0.1 nM.

`Oc1ccc(-c2sc3cc(O)ccc3c2Cc2ccc(OCCN3CCCCC3)cc2)cc1` gave a half-inhibitory concentration (IC50) of 0.19 nM.

`CC/C(=C(\c1ccccc1)c1ccc(OCCN(C)C)cc1)c1ccccc1` [TAMOXIFEN] had an IC50 of 481 nM.

As to `Oc1ccc(-c2sc3cc(O)ccc3c2Sc2ccc(OCCN3CCCCC3)cc2)cc1`, half-maximal inhibition (IC50) was put at 0.28 nM.

`C[C@]12CC[C@@H]3c4ccc(O)cc4C[C@@H](CCCCCCCCC[S+]([O-])CCCC(F)(F)C(F)(F)F)[C@H]3[C@@H]1CC[C@@H]2O` (stereo partly drawn) [FULVESTRANT] had an IC50 of 0.49 nM.

The compound `Cl.Oc1ccc(-c2sc3cc(O)ccc3c2Oc2ccc(OCCN3CCCCC3)cc2)cc1` returned an IC50 of 0.05 nM.

For a further assay, the system named is Rattus norvegicus. As to the kind of experiment: Percent reduction in total serum Cholesterol level at 1.0 mg/kg oral dose. It is filed as functional.
`Cl.Oc1ccc(-c2sc3cc(O)ccc3c2Oc2ccc(OCCN3CCCCC3)cc2)cc1`: the Reduction was found to be 45%.
